In ChEMBL document CHEMBL5653604, “ZSTK474, a novel phosphatidylinositol 3-kinase inhibitor identified using the JFCR39 drug discovery system” (Acta Pharmacol Sin, 2010):

How the values were obtained:
[1] = target: Phosphatidylinositol 4,5-bisphosphate 3-kinase catalytic subunit alpha isoform (Homo sapiens, UniProt P42336); test: Inhibition of p110 alpha (unknown origin)
[2] = target: Phosphatidylinositol 4,5-bisphosphate 3-kinase catalytic subunit beta isoform (Homo sapiens, UniProt P42338); test: Inhibition of p110 beta (unknown origin)
Chain of Phosphatidylinositol 4,5-bisphosphate 3-kinase catalytic subunit beta isoform (P42338 whole entry, canonical isoform): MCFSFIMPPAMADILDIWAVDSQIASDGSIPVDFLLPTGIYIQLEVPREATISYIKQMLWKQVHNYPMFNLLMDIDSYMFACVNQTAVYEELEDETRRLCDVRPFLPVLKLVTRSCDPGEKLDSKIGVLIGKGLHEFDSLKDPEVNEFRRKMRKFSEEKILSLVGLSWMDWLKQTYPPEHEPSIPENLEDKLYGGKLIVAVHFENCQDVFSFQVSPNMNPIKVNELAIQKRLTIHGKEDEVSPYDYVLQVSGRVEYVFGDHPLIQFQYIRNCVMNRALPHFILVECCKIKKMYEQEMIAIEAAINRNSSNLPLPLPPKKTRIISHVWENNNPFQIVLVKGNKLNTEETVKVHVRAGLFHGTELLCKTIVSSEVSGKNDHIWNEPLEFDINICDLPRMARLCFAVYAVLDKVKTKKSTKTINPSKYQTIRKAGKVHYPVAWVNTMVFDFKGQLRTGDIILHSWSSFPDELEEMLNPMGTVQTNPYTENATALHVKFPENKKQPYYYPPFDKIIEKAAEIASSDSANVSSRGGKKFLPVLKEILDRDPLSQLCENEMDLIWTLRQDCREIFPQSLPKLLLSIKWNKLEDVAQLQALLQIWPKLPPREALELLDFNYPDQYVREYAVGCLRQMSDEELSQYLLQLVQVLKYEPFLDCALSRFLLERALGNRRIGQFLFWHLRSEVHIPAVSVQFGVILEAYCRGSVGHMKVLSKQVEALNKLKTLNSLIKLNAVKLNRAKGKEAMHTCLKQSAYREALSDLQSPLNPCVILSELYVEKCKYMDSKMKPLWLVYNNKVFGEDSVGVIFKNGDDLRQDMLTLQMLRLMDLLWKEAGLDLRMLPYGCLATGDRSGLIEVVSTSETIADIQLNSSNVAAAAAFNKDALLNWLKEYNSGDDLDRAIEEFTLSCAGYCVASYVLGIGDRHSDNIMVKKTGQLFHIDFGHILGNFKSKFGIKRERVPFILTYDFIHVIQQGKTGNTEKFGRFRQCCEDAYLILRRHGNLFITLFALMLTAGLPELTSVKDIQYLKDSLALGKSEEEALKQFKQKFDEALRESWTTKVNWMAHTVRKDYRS

[3] = target: T1, Phosphatidylinositol 4,5-bisphosphate 3-kinase catalytic subunit delta isoform (Homo sapiens, UniProt O00329); test: Inhibition of p110 delta (unknown origin)
T1 sequence (O00329 whole entry): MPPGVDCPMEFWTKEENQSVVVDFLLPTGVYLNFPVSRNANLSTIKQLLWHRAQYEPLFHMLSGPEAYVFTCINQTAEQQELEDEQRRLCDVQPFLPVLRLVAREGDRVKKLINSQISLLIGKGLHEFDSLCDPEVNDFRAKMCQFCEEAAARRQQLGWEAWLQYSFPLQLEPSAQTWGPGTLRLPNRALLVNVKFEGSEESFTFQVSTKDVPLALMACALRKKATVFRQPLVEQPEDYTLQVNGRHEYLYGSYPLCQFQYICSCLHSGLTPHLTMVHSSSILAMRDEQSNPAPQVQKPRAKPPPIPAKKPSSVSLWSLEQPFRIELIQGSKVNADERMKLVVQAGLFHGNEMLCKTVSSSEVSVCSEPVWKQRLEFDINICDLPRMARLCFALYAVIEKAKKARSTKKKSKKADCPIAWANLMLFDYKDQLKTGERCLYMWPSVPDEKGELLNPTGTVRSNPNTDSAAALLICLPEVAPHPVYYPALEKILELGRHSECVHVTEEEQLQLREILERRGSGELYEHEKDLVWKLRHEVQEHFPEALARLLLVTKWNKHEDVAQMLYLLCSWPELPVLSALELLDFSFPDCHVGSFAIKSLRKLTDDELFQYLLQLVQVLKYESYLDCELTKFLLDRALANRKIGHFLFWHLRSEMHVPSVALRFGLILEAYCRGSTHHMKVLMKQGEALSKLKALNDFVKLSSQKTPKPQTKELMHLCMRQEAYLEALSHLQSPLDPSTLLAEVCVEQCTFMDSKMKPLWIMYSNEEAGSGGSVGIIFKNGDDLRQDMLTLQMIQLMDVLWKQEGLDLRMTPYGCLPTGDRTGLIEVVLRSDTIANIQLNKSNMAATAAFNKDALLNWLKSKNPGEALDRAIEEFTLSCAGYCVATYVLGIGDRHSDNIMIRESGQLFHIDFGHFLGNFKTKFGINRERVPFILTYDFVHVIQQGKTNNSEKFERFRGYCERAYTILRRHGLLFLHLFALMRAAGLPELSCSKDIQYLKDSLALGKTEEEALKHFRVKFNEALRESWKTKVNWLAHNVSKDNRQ

[4] = system: NCI-H460; test: Growth inhibition of human NCI-H460 cells assessed as reduction in cell viability incubated for 48 hrs by SRB assay; format: functional
[5] = system: OVCAR-8; test: Growth inhibition of human OVCAR-8 cells assessed as reduction in cell viability incubated for 48 hrs by SRB assay; format: functional
[6] = system: SK-OV-3; test: Growth inhibition of human SK-OV-3 cells assessed as reduction in cell viability incubated for 48 hrs by SRB assay; format: functional
[7] = system: RXF 631; test: Growth inhibition of human RXF 631 cells assessed as reduction in cell viability incubated for 48 hrs by SRB assay; format: functional
[8] = target: Phosphatidylinositol 4,5-bisphosphate 3-kinase catalytic subunit gamma isoform (Homo sapiens, UniProt P48736); test: Inhibition of p110 gamma (unknown origin)
Chain of Phosphatidylinositol 4,5-bisphosphate 3-kinase catalytic subunit gamma isoform (P48736 whole entry, canonical isoform): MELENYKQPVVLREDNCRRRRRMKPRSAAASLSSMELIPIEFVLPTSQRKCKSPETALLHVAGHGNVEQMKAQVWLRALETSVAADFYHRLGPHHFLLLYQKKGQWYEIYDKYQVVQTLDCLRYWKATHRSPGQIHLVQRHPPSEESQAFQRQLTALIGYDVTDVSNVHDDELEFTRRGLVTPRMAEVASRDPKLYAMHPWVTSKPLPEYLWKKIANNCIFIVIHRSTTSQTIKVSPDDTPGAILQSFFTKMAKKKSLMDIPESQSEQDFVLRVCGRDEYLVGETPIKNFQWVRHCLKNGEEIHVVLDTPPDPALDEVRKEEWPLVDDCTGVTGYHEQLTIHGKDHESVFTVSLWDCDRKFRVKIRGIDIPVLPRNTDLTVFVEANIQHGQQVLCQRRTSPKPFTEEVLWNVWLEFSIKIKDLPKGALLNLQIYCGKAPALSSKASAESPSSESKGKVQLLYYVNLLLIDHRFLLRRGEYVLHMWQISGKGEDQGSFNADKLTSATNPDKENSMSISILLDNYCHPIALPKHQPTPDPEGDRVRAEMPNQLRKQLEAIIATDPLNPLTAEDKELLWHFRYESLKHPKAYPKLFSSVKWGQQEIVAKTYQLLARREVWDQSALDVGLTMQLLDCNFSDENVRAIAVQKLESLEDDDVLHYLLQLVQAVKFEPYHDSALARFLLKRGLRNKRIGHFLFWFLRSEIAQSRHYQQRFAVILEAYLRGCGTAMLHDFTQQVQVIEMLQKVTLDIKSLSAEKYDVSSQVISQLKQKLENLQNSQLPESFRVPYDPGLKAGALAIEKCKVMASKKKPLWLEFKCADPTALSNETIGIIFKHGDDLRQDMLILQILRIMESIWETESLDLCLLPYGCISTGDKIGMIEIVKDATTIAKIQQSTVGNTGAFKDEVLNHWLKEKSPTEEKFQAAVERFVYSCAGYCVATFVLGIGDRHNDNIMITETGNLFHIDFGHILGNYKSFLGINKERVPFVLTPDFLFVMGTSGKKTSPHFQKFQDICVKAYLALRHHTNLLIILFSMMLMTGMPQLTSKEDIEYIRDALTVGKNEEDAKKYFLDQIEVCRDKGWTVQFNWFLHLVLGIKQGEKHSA

Chain of Phosphatidylinositol 4,5-bisphosphate 3-kinase catalytic subunit alpha isoform (P42336 whole entry, canonical isoform): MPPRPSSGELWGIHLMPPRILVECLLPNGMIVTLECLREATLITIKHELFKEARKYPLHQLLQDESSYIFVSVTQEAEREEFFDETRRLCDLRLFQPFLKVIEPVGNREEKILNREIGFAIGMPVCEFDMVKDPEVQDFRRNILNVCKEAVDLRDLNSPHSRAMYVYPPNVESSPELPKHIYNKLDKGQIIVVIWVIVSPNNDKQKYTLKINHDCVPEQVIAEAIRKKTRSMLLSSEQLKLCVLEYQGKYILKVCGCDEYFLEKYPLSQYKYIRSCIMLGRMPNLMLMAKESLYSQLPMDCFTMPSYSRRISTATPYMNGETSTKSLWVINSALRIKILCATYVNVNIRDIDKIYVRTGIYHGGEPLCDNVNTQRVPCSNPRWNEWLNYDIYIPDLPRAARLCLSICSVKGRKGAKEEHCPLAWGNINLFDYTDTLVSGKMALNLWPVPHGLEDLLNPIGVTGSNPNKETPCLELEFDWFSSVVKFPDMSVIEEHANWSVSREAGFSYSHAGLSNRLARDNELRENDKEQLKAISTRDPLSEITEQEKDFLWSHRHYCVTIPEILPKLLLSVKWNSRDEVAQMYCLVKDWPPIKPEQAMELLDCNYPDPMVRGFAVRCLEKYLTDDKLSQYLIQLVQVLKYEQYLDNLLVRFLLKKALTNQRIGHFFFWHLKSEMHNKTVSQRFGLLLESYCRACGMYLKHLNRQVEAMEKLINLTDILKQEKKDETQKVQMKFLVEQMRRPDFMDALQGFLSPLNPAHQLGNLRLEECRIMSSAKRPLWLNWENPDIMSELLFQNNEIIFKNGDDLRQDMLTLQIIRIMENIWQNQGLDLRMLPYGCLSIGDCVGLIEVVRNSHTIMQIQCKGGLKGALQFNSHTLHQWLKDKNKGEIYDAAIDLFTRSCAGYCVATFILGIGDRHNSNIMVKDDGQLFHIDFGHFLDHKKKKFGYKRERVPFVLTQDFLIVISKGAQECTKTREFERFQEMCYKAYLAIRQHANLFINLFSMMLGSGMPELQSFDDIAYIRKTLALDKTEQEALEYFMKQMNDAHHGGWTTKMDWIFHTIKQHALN

| SMILES | IC50 [2] | IC50 [3] | IC50 [8] | further results |
| --- | --- | --- | --- | --- |
| C=CCN(/C=C1/C(=O)O[C@H](COC)[C@@]2(C)C1=C(O)C(=O)C1=C2[C@H](OC(C)=O)C[C@]2(C)C(=O)CC[C@@H]12)CC=C [SONOLISIB] | > 300 nM | 3 nM |  | IC50 [1]: 6 nM |
| COc1cc(Nc2nc3ccccc3nc2NS(=O)(=O)c2ccc(NC(=O)c3ccc(C)c(OC)c3)cc2)cc(OC)c1 | 113 nM |  |  |  |
| FC(F)c1nc2ccccc2n1-c1nc(N2CCOCC2)nc(N2CCOCC2)n1 [ZSTK-474] |  |  |  | GI50 [4]: 372 nM; GI50 [5]: 1260 nM; GI50 [6]: 398 nM; GI50 [7]: 316 nM |
| COc1ncc(-c2ccc3nccc(-c4ccnnc4)c3c2)cc1NS(=O)(=O)c1ccc(F)cc1F [OMIPALISIB] |  |  | 1 nM |  |
| COc1ccc(Cl)c(Nc2nc3ccccc3nc2NS(=O)(=O)c2cccc(NC(=O)C(C)(C)N)c2)c1 [PILARALISIB] |  | 36 nM | 23 nM |  |
